Read-outs that look alike come from different tables or passages of the source.
Tests used:
CDK1/Cyclin B = biological target: T1, CDK1/Cyclin B (Homo sapiens, UniProt P06493); assay: Enzymatic assay for CDK1 (FRET based LANCE Ultra kinase assay); type: biochemical
T1 construct: purchased Invitrogen PR4768C
Procedure, shortened: (§1)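 LANCE Ultra TR-FRET: ULight-MBP peptide (68 nM) with ATP at Km, […], 60 min at 23° C. EDTA plus Eu-anti-phospho-MBP added, another 60 min, then 665/615 nm emission read. Compounds tested as 8-dose 4-fold DMSO dilutions.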

CDK2/Cyclin A = biological target: T2, CDK2/Cyclin A (Homo sapiens, UniProt P24941); assay: Enzymatic assay for CDK2 (FRET based LANCE Ultra kinase assay); type: biochemical
T2 construct: purchased Invitrogen PV6290
Procedure, shortened: as §1

CDK5/p25 = biological target: T3, CDK5/p25 (Homo sapiens, UniProt Q00535); assay: Enzymatic assay for CDK5 (FRET based LANCE Ultra kinase assay); type: biochemical
T3 construct: purchased Invitrogen PR8543B
Procedure, shortened: as §1

CDK7/Cyclin H/MNAT1 = biological target: T4, CDK7/Cyclin H/MNAT1 (Homo sapiens, UniProt P50613); assay: Enzymatic assay for CDK7 (FRET based LANCE Ultra kinase assay); type: biochemical
T4 construct: purchased Invitrogen PR6749B
Procedure, shortened: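 Inhibition was measured at Km ATP by time-resolved FRET between a Eu anti-phospho antibody and a phosphorylated ULight peptide. The enzyme was the purified CDK7/cyclin complex, and data were curve-fitted.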

H460 = assay: Cellular H460 viability assay (CellTiter-Glo, 72 hours); type: cell-based; settings: Homo sapiens, NCI-H460
Procedure, shortened: (§2)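 Mycoplasma-tested cells, seeded at densities chosen for each line, received compound or DMSO vehicle (under 0.1% final) for 72 hours. Duplicate cultures were then read for viability by CellTiter-Glo luminescence.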

MV4-11 = assay: Cellular MV4-11 viability assay (CellTiter-Glo, 72 hours); type: cell-based; settings: Homo sapiens
Procedure, shortened: as §2

A2780 = assay: Cellular A2780 viability assay (CellTiter-Glo, 72 hours); type: cell-based; settings: Homo sapiens
Text: Human T-cell acute lymphoblastic leukemia cell line, MOLT-4 (ATCC, Cat #CRL-1582), Human multiple myeloma cell line, RPMI-8226 (Invitrogen, Cat #22400-089) and MM.1S (ATCC, Cat #CRL-2974), NSCLC (Non-small cell lung cancer) cell line H460 (ATCC, Cat #HTB-177), Human colon colorectal carcinoma cell line HCT116 (ATCC, Cat #CCL-247), Human acute monocytic leukemia cell line MV4-11 (ATCC, Cat #CRL-9591), OVCAR-3 (ATCC, Cat #HTB-161) and A2780 (ECACC, Cat #93112519) were obtained from ATCC. Cells were grown in RPMI-1640 media (Invitrogen, Cat #22400-089) supplemented with 10% FBS (Invitrogen, Cat #10099141) and 1% penicillin/streptomycin (Invitrogen, Cat #15070063) and cultured at 37° C., 5% CO2 in a humidified chamber. All cell lines were routinely tested for mycoplasma.
The effect of the CDK7 inhibitor to inhibit the growth of target cancer cells was evaluated through the 72 hours time period of viability assay. Briefly, the candidate cell line ware plated in 96 well plate at the following density of cells respectively. 1×10^4 cells/well for MOLT-4, RPMI-8226, MV4-11 and MM.1S, 5×10^3 for H460, HCT116 and OVCAR-3 and IX 10^3 for A2780. After 24 hours, the cells were treated with various concentrations of the compound (ranging from 0.0015 uM to 10 uM). DMSO solvent without compound served as a control and final DMSO concentration less than 0.1%. After 72 hours of incubation at 37° C., 5% CO2 incubator, cells were analyzed for the viability using the CellTiter-Glo Luminescent Cell Viability Assay (Promega, Cat #G7570). All viability assays were performed in duplicate and Luminescence was read using an Envision (Perkin Elmer, USA). Data was analyzed using XLfit software.

MOLT-4 = assay: Cellular MOLT-4 viability assay (CellTiter-Glo, 72 hours); type: cell-based; settings: Homo sapiens, MOLT4 viability assay
Procedure, shortened: as §2

RPMI-8226 = assay: Cellular RPMI-8226 viability assay (CellTiter-Glo, 72 hours); type: cell-based; settings: Homo sapiens
Procedure, shortened: as §2

HCT116 = assay: Cellular HCT116 viability assay (CellTiter-Glo, 72 hours); type: cell-based; settings: Homo sapiens, HCT-116
Procedure, shortened: as §2

[1] = read-out: CDK1 enzymatic activity (IC50 range)
[2] = read-out: CDK2 enzymatic activity (IC50 range)
[3] = read-out: CDK5 enzymatic activity (IC50 range)
[4] = read-out: CDK7 enzymatic activity (IC50 range)

T4 sequence (P50613 whole entry): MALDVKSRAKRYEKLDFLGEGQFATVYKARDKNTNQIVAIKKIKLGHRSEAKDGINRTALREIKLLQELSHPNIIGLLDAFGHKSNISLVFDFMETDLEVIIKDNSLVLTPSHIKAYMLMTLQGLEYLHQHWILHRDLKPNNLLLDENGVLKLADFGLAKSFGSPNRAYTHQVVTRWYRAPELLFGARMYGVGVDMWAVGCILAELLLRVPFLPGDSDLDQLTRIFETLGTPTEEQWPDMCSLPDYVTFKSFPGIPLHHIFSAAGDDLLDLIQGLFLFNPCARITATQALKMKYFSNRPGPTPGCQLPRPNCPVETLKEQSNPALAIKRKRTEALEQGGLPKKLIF
T4 sequence (P51946 whole entry partner): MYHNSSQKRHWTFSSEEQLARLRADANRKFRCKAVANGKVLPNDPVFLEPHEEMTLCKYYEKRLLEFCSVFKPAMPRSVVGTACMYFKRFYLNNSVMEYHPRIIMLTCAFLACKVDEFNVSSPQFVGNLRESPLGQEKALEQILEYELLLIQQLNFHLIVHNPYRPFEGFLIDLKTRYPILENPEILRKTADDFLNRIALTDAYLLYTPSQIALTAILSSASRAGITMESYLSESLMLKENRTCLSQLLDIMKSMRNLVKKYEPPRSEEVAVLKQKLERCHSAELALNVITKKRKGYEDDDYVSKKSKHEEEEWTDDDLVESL
T4 sequence (P51948 whole entry partner): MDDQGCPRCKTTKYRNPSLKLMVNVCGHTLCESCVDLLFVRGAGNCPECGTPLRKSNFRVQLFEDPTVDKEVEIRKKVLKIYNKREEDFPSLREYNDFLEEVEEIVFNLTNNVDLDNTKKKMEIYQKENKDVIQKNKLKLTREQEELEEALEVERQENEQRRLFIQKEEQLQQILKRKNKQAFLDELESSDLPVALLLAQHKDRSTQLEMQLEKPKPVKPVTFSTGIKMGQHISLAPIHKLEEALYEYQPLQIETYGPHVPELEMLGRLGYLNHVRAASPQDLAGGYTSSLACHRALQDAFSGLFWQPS
T1 sequence (P06493 whole entry): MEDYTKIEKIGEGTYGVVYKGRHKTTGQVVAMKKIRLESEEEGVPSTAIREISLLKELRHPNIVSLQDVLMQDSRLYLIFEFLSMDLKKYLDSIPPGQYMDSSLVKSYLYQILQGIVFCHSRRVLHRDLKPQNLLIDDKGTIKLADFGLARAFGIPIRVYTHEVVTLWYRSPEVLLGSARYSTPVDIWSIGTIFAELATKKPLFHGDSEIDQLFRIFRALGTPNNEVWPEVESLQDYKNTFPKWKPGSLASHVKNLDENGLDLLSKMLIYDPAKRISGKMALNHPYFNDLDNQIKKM
T1 sequence (P14635 whole entry partner): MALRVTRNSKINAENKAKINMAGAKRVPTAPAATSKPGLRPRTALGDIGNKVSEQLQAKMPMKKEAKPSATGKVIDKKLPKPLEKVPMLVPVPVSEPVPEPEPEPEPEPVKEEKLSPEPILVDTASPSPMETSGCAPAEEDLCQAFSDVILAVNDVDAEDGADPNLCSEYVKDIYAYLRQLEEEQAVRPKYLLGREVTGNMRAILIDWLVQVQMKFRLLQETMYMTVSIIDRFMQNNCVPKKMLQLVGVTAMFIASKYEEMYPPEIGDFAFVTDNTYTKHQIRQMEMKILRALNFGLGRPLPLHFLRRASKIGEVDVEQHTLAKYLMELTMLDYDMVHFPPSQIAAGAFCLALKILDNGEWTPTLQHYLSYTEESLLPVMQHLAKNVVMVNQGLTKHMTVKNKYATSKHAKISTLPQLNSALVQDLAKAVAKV
T3 sequence (Q00535 whole entry): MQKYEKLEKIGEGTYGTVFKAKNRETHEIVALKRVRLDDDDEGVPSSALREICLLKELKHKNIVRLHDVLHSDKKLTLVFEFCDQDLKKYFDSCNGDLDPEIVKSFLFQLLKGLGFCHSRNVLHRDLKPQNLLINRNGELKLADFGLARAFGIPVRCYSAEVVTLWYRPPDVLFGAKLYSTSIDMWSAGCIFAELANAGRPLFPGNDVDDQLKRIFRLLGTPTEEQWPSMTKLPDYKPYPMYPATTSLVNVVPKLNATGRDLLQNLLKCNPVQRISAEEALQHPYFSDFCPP
T3 sequence (Q15078 99-307 partner limits assumed): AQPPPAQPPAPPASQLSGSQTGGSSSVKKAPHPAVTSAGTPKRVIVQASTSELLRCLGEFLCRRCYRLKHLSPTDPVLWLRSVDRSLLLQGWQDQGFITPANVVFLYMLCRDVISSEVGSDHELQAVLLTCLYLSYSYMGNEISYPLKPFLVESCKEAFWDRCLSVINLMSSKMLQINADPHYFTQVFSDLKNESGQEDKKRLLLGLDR

Row | SMILES | IC50 (CDK1/Cyclin B; [1]) | IC50 (CDK2/Cyclin A; [2]) | IC50 (CDK5/p25; [3]) | CDK1/CDK7: Selectivity of CDK7 inhibition over CDK1 inhibition (CDK7/Cyclin H/MNAT1; CDK7 over CDK1) | CDK2/CDK7: Selectivity of CDK7 inhibition over CDK2 inhibition (CDK7/Cyclin H/MNAT1; CDK7 over CDK2) | CDK5/CDK7: Selectivity of CDK7 inhibition over CDK5 inhibition (CDK7/Cyclin H/MNAT1; CDK7 over CDK5) | IC50 (CDK7/Cyclin H/MNAT1; [4]) | IC50 (H460) | IC50 (MV4-11) | IC50 (A2780) | IC50 (MOLT-4) | IC50 (CDK1/Cyclin B; read-out: CDK1 enzymatic activity (IC50 activity range)) | IC50 (CDK2/Cyclin A; read-out: CDK2 enzymatic activity (IC50 activity range)) | IC50 (CDK5/p25; read-out: CDK5 enzymatic activity (IC50 activity range)) | CDK1/CDK7: Selectivity of CDK7 inhibition over CDK1 inhibition (CDK7/Cyclin H/MNAT1; CDK1/CDK7) | CDK2/CDK7: Selectivity of CDK7 inhibition over CDK2 inhibition (CDK7/Cyclin H/MNAT1; CDK2/CDK7) | CDK5/CDK7: Selectivity of CDK7 inhibition over CDK5 inhibition (CDK7/Cyclin H/MNAT1; CDK5/CDK7) | IC50 (CDK7/Cyclin H/MNAT1; read-out: CDK7 enzymatic activity (IC50 activity range)) | IC50 (RPMI-8226) | IC50 (HCT116)
1 | CC(C)c1cnn2c(NCc3c(Cl)cccc3-n3ccc(C(C)(C)O)n3)nc(N3CCC(C)(N)CC3)nc12 [Compound 246] | > 1000 nM | > 1000 nM | > 1000 nM | A (A=greater than 200 fold) | A (A=greater than 200 fold) | A (A=greater than 200 fold) | < 100 nM | < 1000 nM | < 1000 nM | ≤ 1000 nM | – | – | – | – | – | – | – | – | – | –
2 | CC(C)c1cnn2c(NCc3ccccc3-n3cccn3)nc(N3CCC(O)CC3)nc12 [Compound 4] | > 1000 nM | 100 to 1000 nM | 100 to 1000 nM | B (B=less than 200 fold, but greater than 20 fold) | B (B=less than 200 fold, but greater than 20 fold) | B (B=less than 200 fold, but greater than 20 fold) | < 100 nM | 1000 to 10000 nM | – | 1000 to 10000 nM | > 10000 nM | – | – | – | – | – | – | – | – | –
3 | CC(C)c1cnn2c(NCc3ccccc3-c3ccc4ccccc4n3)nc(NC3CCC(O)CC3)nc12 (centres unmarked) [Compound 270] | – | – | – | – | – | – | – | 1000 to 10000 nM | 1000 to 10000 nM | 1000 to 10000 nM | – | > 1000 nM | > 1000 nM | > 1000 nM | A (A=greater than 200 fold) | A (A=greater than 200 fold) | A (A=greater than 200 fold) | < 100 nM | – | –
4 | CC(C)c1cnn2c(NCc3ccccc3-c3cc4ccccc4[nH]3)nc(N3CCC(N)(CO)CC3)nc12 [Compound 129] | > 1000 nM | 100 to 1000 nM | 100 to 1000 nM | A (A=greater than 200 fold) | A (A=greater than 200 fold) | B (B=less than 200 fold, but greater than 20 fold) | < 100 nM | < 1000 nM | < 1000 nM | ≤ 1000 nM | – | – | – | – | – | – | – | – | < 1000 nM | –
5 | CC(C)c1cnn2c(NCc3ccccc3-c3cc4ccccc4[nH]3)nc(N3CCOC(CN)C3)nc12 (racemic) [Compound 130] | > 1000 nM | 100 to 1000 nM | 100 to 1000 nM | A (A=greater than 200 fold) | B (B=less than 200 fold, but greater than 20 fold) | B (B=less than 200 fold, but greater than 20 fold) | < 100 nM | < 1000 nM | < 1000 nM | ≤ 1000 nM | – | – | – | – | – | – | – | – | < 1000 nM | –
6 | CC(C)c1cnn2c(NCc3ccccc3-c3ccc4ccccc4n3)nc(NCCC(O)CN)nc12 (racemic) [Compound 234] | > 1000 nM | > 1000 nM | > 1000 nM | A (A=greater than 200 fold) | A (A=greater than 200 fold) | A (A=greater than 200 fold) | < 100 nM | < 1000 nM | < 1000 nM | ≤ 1000 nM | – | – | – | – | – | – | – | – | – | < 1000 nM
7 | CC(C)c1cnn2c(NCc3c(Cl)cccc3-c3cccc(C(C)(C)O)n3)nc(N3CCC(N)CC3)nc12 [Compound 241] | > 1000 nM | > 1000 nM | > 1000 nM | A (A=greater than 200 fold) | A (A=greater than 200 fold) | B (B=less than 200 fold, but greater than 20 fold) | < 100 nM | < 1000 nM | < 1000 nM | ≤ 1000 nM | – | – | – | – | – | – | – | – | – | < 1000 nM
